Read-outs that look alike come from different tables or passages of the source.
Assays:
Adenovirus 5 (AdV5) = test: Cytopathic effects (CPE) reduction assay, AdV5 in HFF cells, 384-well; format: cell-based, human adenovirus 5 (AdV5); conditions: for selectivity ratio: human, adenovirus 5, HFF cells, read-out: SI (selective index, CC50/EC50)
Protocol: Antiviral and cytotoxicity data were obtained in a series of three to five separate experiments for each virus to provide an accurate estimate of antiviral activity and statistical data. Each assay included positive and negative control compounds as well as infected and uninfected controls to ensure the integrity of the experiment.
The CPE reduction assays were performed in monolayers of human foreskin fibroblast (HFF) cells (5000/well) in 384-well plates in assay media consisting of MEM with Earle's salts, 2% FBS and standard concentrations of L-glutamine, penicillin and gentamycin. 5000 cells were seeded in 384-well microtiter plates and incubated at 37° C. in a humidified 5% CO2 incubator for 24 hours to allow for formation of confluent monolayers.
Cell monolayers were infected at a multiplicity of infection (MOI) of approximately 0.005 PFU/cell with virus strains including AdV5. […] Cytopathology was determined by the addition of CellTiter-Glo® reagent (Promega, Madison, Wis.). Concentrations of antiviral test compounds sufficient to reduce CPE by 50% (EC50) were interpolated from the experimental data using standard methods in Microsoft® Excel.

AdV6 = test: Therapeutic efficacy against intravenous AdV6 in immunosuppressed male Syrian hamsters; conditions: for serum transaminase (ALT) levels (FIG. 7) / virus burden in the liver (FIG. 8): 5 days post challenge; for mortality / survival (FIG. 6A): AdV6-infected hamsters
Protocol: Four dose levels were tested: 10, 30, 60 and 100 mg/kg p.o. q.d. The highest dose was determined based on rat toxicology data.
All hamsters were immunosuppressed using cyclophosphamide (CP). CP was administered intraperitoneally at a dose of 140 mg/kg, and then twice weekly at a dose of 100 mg/kg.
Filociclovir, in powdered form, was suspended in 0.4% carboxymethyl cellulose (Sigma C5678, Lot #SLBS7273) at 1, 3, 6, and 10 mg/ml and sonicated to visual homogeneity and aliquots stored at 4° C. Aliquots were allowed to equilibrate to room temperature before dosing. Hamsters weighing approximately 100 g were dosed with a 1 ml volume of the appropriate suspension for the 10, 30, 60, and 100 mg/kg dose levels.
The hamsters were divided into 8 groups, 15 hamsters/group, (with the exception of Group 2, which had only 5 hamsters; see Table 3), immunosuppressed, and then injected i.v. with vehicle (Groups 1-2) or 2×10^10 PFU/kg of AdV6 (Groups […]). Groups 1 and 3 received drug vehicle (p.o. q.d.), Group 4 received 10 mg/kg filociclovir (p.o. q.d.), Group 5 received 30 mg/kg filociclovir (p.o. q.d.), Group 6 received 60 mg/kg filociclovir (p.o. q.d.), Groups 2 and 7 received 100 mg/kg filociclovir (p.o. q.d.), and Group 8 received cidofovir (20 mg/kg, 3 times weekly). For all groups, drug administration started 1 day before challenge, and continued according to the schedule above for the duration of the study.
The body weights and any signs of morbidity of the animals were recorded daily. At 5 days post challenge, 5 hamsters (designated at the start of the experiment) from each group (with the exception of Group 2) were sacrificed, and gross pathological observation was performed. Serum and liver samples were collected and the virus burden in liver was determined by a TCID50 assay, and the serum was analyzed for transaminase levels. The remaining 10 hamsters were sacrificed at 14 days post challenge. Hamsters that became visually moribund before Day 14 were sacrificed as needed. In addition to the hamsters observed to be moribund, all hamsters that lost more than 20% of their original body weight were also sacrificed. For the hamsters sacrificed at the conclusion of the experiment and those sacrificed as moribund, serum and liver tissues were collected and banked for possible determination of serum transaminase levels and virus burden in the liver. Liver tissue was preserved in formalin for possible histopathological examination.
As such, there were two endpoints for the study: One, collected from ten animals, was survival and body weight gain/loss (with the option of assaying virus burden in the liver and serum transaminase levels). The other, collected from 5 animals for the Day 5 time point, was virus burden in the liver and serum transaminase levels.

AdV3 = test: Plaque reduction antiviral IC50 assay in A549, AdV3; format: cell-based, adenovirus 3; conditions: Human mastadenovirus B
Protocol: (§1) The effectiveness of filociclovir to inhibit a number of adenovirus strains associated with conjunctivitis were tested in an in vitro assay. To determine the in vitro IC50 concentrations, i.e., the concentration of filociclovir that inhibits adenovirus plaque formation by 50%, filociclovir and cidofovir (CDV) were tested against a panel of 7 ocular types of adenovirus.
(§2) 42 A549 24-well multiplates (1 per each drug and each virus strain) were prepared. 7 adenovirus serotypes were tested at a time. Virus dilutions from known titer of stock viruses (approx. 100 PFU/0.1 ml) were prepared with AdV3 L, AdV4 H, AdV5 M, AdV7a J, AdV8 E, AdV 19/64 K, and AdV37 ATCC. 0.1 ml (containing approx. 100 PFU) of each of the 7 viruses were plated onto all 24 wells of an A549 multiplate and incubated at 37° C. in a 5% CO2 water-vapor atmosphere for 3 hours.
(§3) Dilutions of filociclovir and cidofovir were prepared at 400, 40, 4.0, 0.4, 0.04, and 0.004 μM in 2× nutrient tissue culture media, following the dilution protocol: 7.5 ml of each of filociclovir and cidofovir dilution was added to a tube and 22.5 ml of methylcellulose in outgrowth medium (OG) was then added to each tube. 1 ml of each filociclovir and cidofovir dilutions was added to an additional 15 ml tube and 3 ml of OG was added to each tube. This was the overlay for the Adv8 plates. Normal methylcellulose overlay medium without any drug was used for the control wells for each plate.
(§4) For each virus plate, 3 wells were overlaid with each of the 6 final filociclovir and cidofovir concentrations (100, 10, 1.0, 0.1, 0.01, and 0.001 μM) and 6 wells with the control media. Plates were incubated at 37° C. in a 5% CO2 water-vapor atmosphere until plaques were visible. When plaques became visible, plates were stained with gentian violet and plaques were counted at 25λ using a dissecting microscope. The IC50 concentrations were determined from Fitted Line Plot regression analysis using Minitab. All assays were performed in triplicate.

AdV5 = test: Plaque reduction antiviral IC50 assay in A549, AdV5; format: cell-based, adenovirus 5; conditions: Human mastadenovirus C
Protocol: as §1, §2, §3, §4

AdV8 = test: Plaque reduction antiviral IC50 assay in A549, AdV8; format: cell-based, adenovirus 8
Protocol: as §1, §2, §3, §4

AdV37 = test: Plaque reduction antiviral IC50 assay in A549, AdV37; format: cell-based, adenovirus 37; conditions: unidentified adenovirus
Protocol: as §1, §2, §3, §4

AdV64 = test: Plaque reduction antiviral IC50 assay in A549, AdV64; format: cell-based, adenovirus 19/64; conditions: unidentified adenovirus
Protocol: as §1, §2, §3, §4

[1] = tested on: panel of ocular adenovirus types (Ad3, Ad4, Ad5, Ad7a, Ad8, Ad19/64, and Ad37); test: Plaque reduction antiviral IC50 assay, whole panel of ocular adenovirus types; format: cell-based, adenovirus Species B, C, D, and E; conditions: unidentified adenovirus
Protocol: as §1, §2, §3, §4

[2] = read-out: mean IC50 concentrations across the panel (upper bound)
[3] = read-out: range of mean IC50 concentrations across the panel

Row | Structure (SMILES) | selectivity ratio (Adenovirus 5 (AdV5)) | IC50 (AdV3; read-out: Mean IC50) [µM] | IC50 (AdV3; read-out: Median IC50) [µM] | IC50 (AdV5; read-out: Mean IC50) [µM] | IC50 (AdV5; read-out: Median IC50) [µM] | IC50 (AdV8; read-out: Mean IC50) [µM] | IC50 (AdV8; read-out: Median IC50) [µM] | IC50 (AdV37; read-out: Mean IC50) [µM] | IC50 (AdV37; read-out: Median IC50) [µM] | IC50 (AdV64; read-out: Mean IC50) [µM] | IC50 (AdV64; read-out: Median IC50) [µM] | IC50 [1, 2] [µM] | IC50 [1, 3] [µM] | also measured
1 | Nc1ccn(C[C@@H](CO)OCP(=O)(O)O)c(=O)n1 [CDV, cidofovir, reference compound] | 24 | 5.78 | 6.02 | 30.3 | 38.8 | 0.487 | 0.474 | 3.96 | 0.382 | 4.09 | 4.94 | < 31 | 0.487 to 30.3 | EC50 (Adenovirus 5 (AdV5); Human mastadenovirus C, AdV 384 Well CPE, HFF cells, average and SD from five independent experiments): 4 ± 2 µM; serum transaminase (ALT) levels (FIG. 7) (AdV6; 20 mg/kg i.p. 3x weekly): none of the filociclovir- or CDV-treated animals had elevated serum transaminase levels; virus burden in the liver (FIG. 8) (AdV6; 20 mg/kg i.p. 3x weekly): very low to nonquantifiable levels
2 | Nc1nc2c(ncn2/C=C2/CC2(CO)CO)c(=O)[nH]1 [Filociclovir, 2-amino-9-{(Z)-[2,2-bis(hydroxymethyl)cyclopropylidene]methyl}-3,9-dihydro-6H-purin-6-one] | 43 | 0.778 | 0.756 | 4.68 | 4.62 | 0.496 | 0.485 | 3.53 | 4.52 | 1.86 | 0.424 | < 5 | 0.496 to 4.68 | concentration effective to reduce AdV replication (FIG. 1) (Adenovirus 5 (AdV5); AdV5, tested 0.01 to 100 μM, 'as low as'): ≥ 0.2 µM; body weight loss (FIG. 6B) (AdV6; 10 mg/kg p.o. q.d.): reversed; mortality / survival (FIG. 6A) (AdV6; 10 mg/kg p.o. q.d.): prevented mortality; body weight loss (FIG. 6B) (AdV6; 30 mg/kg p.o. q.d.): reversed; mortality / survival (FIG. 6A) (AdV6; 30 mg/kg p.o. q.d.): prevented mortality; toxicity for AdV6-infected hamsters (AdV6; 60 mg/kg p.o. q.d.): toxic; toxicity for AdV6-infected hamsters (AdV6; 100 mg/kg p.o. q.d.): toxic; virus burden in the liver (FIG. 8) (AdV6; 10 mg/kg p.o. q.d.): one animal in the AdV6+10 mg/kg filociclovir group with a very low liver virus burden; virus burden in the liver (FIG. 8) (AdV6; 30 mg/kg p.o. q.d.): nondetectable level; serum transaminase (ALT) levels (FIG. 7) (AdV6; filociclovir-treated animals): none of the filociclovir- or CDV-treated animals had elevated serum transaminase levels; necropsy finding at day 5 sacrifice (AdV6; AdV6+60 mg/kg p.o. q.d.): extensive kidney pathology; necropsy finding at day 5 sacrifice (AdV6; AdV6+100 mg/kg p.o. q.d.): extensive kidney pathology

— US20220370464A1, “COMPOSITIONS AND METHODS OF TREATING OR PREVENTING OCULAR INFECTIONS WITH FILOCICLOVIR” (Microbiotix, Inc., priority 2019, published 2022)
